Where a name gives a salt, the structure may show the parent alone.
Key:
[1] = tested on: visceromotor response (VMR) elicited by colorectal distension (CRD); assay: visceromotor response (VMR) elicited by colorectal distension (CRD) in conscious rats; format: in vivo, Sprague-Dawley rats; conditions: for VMR to noxious CRD: CRD 80 mmHg, naive rats; for effect on VMR to CRD: 1-100 nmol, hydrochloride
Description: Adult male Sprague-Dawley rats (250-350g, Harlan, San Diego, CA) served as animal subjects. Rats were housed 5-6 per cage, allowed free access to food and water, and were maintained on a 12 h light-dark cycle (lights on between 06.00 and 18.00 h).
Rats were deeply anesthetized with pentobarbital sodium (45 mg/kg, Nembutal, Abbott Labs, North Chicago, IL) administered intraperitoneally. […] The electrode leads were tunneled subcutaneously and exteriorized at the nape of the neck for future access. Some animals were also implanted with venous catheters in the femoral vein to enable i.v. administration of drugs. For intrathecal (i.t.) drug administration, an i.t. catheter (PE-10 tubing, 8.5 cm long) was inserted through the dura overlying the atlanto-occipital junction and threaded to the level of the lumbar enlargement (Yaksh and Rudy, 1976). The venous or i.t. catheter was surgically anchored to musculature at the back of the neck, and externalized with the electrode leads. The wounds were closed in layers with 4-0 silk. Rats were housed singly and allowed to recuperate for at least 3-5 days prior to testing.
The stimulus employed has been previously described (Gebhart and Sengupta, 1996). Briefly, the descending colon and rectum were distended by pressure-controlled air inflation of a 6 cm long flexible latex balloon tied around a flexible tube (Tygon). The balloon was lubricated (Surgilube, E. Fougera and Co., Melville, NY), inserted intra-anally and anchored by taping the balloon catheter to the base of the tail. […] The behavioral response quantified was the visceromotor response, a contraction of the abdominal and hindlimb (Ness and Gebhart, 1988). EMG activity in the external oblique musculature was quantified by computing the average amplitude (Dr. Alfred Bayati Astra Hässle). Each distension trial lasted 60 s and EMG activity was quantified 20 s before distension (baseline), during distension, and 20 s after distension. The increase in EMG amplitude during distension over baseline was recorded as the response.
On the day of testing, animals were briefly anesthetized with Metophane®, and the balloon was inserted and secured in place as described above. Rats were allowed to recover for 30-40 min, following which two stable control responses to CRD (80 mmHg, 20 s, 4 min interstimulus interval) were obtained.
Drugs were administered i.v. into the femoral vein through the indwelling catheter. All doses were administered in a volume of up to 230 µl followed by a flush with 100 µl of preservative-free saline over a period of 30s. Dose response curves were generated using a cumulative dosing paradigm. The first i.v. injection was made 2 min after the second control response. Subsequent doses were injected 8 min apart, thus allowing two distensions after each dose. Data are reported as the average response to the two distensions.
In one group of animals, memantine was administered to the lumbar enlargement through the indwelling i.t. catheter with the aid of a […] injection needle connected to a 25 ul Hamilton syringe by a length of polyethylene tubing (PE-10). All doses were administered in a volume of 5 µl followed by a flush with 10 µl of preservative-free saline over a period of 1 min. The progress of the injection was continuously monitored by following the movement of an air bubble in the tubing. The dose response curve was generated using a cumulative dosing paradigm. The first i.t. injection was made 2 min after the second control response. Subsequent doses were injected 8 min apart, thus allowing two distensions after each dose. Data are reported as the average response to the two distensions. […]

[2] = tested on: pelvic afferent nerve activity; assay: pelvic afferent nerve activity elicited by colorectal distension in anesthetized rats; format: in vivo, Sprague-Dawley rats; conditions: intra-arterial, cumulative 1, 3, 6 and 10 mg/kg; CRD 80 mm Hg
Description: General procedures: Male Sprague-Dawley rats 425-450 g) were anesthetized initially with sodium pentobarbital (40-45 mg/kg ip) and maintained with α-chloralose (60 mg kg^-1 h^-1). The trachea was cannulated for mechanical ventilation with room air. The left common carotid artery was cannulated for recording blood pressure. The femoral artery and vein were catheterized for injection of drug and anesthetic, respectively. Rats were paralyzed with pancuronium bromide (0.3 mg/kg i.v.) and ventilated with room air (55-60 strokes/min and 3-4 ml stroke volume). Supplemental doses of pancuronium bromide (0.2-0.3 mg kg^-1 h^-1) were given to maintain paralysis during the course of experiment. The mean arterial blood pressure was monitored continuously and maintained at >80 mm Hg with supplemental intravenous injection of 5% dextrose in saline given in a bolus of 1 to 1.5 ml as required. […]
Recordings of afferent nerve action potentials: The S1 dorsal root was identified and decentralized at its entry to the spinal cord. […] Electrical activity of single units was recorded monopolarly by placing a teased fiber over one arm of a bipolar silver-silver chloride electrode; a fine strand of connective tissue was placed across the other pole of the electrode. […]

[3] = i.v., 1-10 mg/kg, conscious rats (figure legends)
[4] = i.v., most effective dose tested 60 mg/kg
[5] = intrathecal (i.t.), up to a dose of 300nmol, conscious rats

Row | Structure (SMILES) | effect on viscero-motor responses (VMR) to noxious colorectal distension [1, 3] | VMR to noxious CRD [1, 4] | VMR to noxious CRD ([1]; i.v., most effective dose tested (dose not given)) | effect on viscero-motor responses (VMR) to noxious colorectal distension [1, 5] | VMR to noxious CRD ([1]; i.v., most effective dose tested 100 mg/kg) | pelvic nerve activity elicited by distention of the colon [2] | VMR to noxious CRD ([1]; i.v., most effective dose tested 10 mg/kg) | effect on VMR to CRD ([1]; intrathecal (i.t.), conscious rats) | effect on VMR to CRD ([1]; intrathecal (i.t.), conscious rats, listed as Memantine)
1 | CCNC(Cc1cnccn1)c1ccccc1 (single isomer, unassigned; (+)) [Compound 3, (+) N-ethyl-1-phenyl-2-(3-pyrazine)ethanamine hydrochloride] | dose-dependently (1-10 mg/kg) attenuated VMR | 5 % of control |  |  |  |  |  |  | 
2 | N=C(N)c1cccc(CC(N)c2ccccc2)n1 (stereo not shown) [Compound 1, 2-amidino-6-(2-amino-2-phenyl)-ethylpyridine trihydrochloride] | dose-dependently (1-10 mg/kg) attenuated VMR |  | 13 % of control | None of the three compounds attenuated VMR |  |  |  |  | 
3 | Cl.NCC(=O)NC(Cc1ccccc1)c1ccccc1 (stereo not shown) [Compound 2, 2-amino-N-(1,2-diphenylethyl)acetamide hydrochloride] | dose-dependently (1-10 mg/kg) attenuated VMR | 40 % of control |  | None of the three compounds attenuated VMR |  |  |  |  | 
4 | Cl.NC(Cn1cccn1)c1ccccc1 (stereo not drawn) [Compound 4, alpha-phenyl-1H-pyrazole-1-ethanamine hydrochloride] | dose-dependently (1-10 mg/kg) attenuated VMR |  |  | None of the three compounds attenuated VMR | 10 % of control |  |  |  | 
5 | CC12CC3CC(C)(C1)CC(N)(C3)C2 [memantine, memantine hydrochloride, reference compound] | dose-dependantly attenuate VMR |  |  |  |  | reduced, in a dose-dependent fashion | 28 % of control | without effect | did not attenuate VMR
